{
  "source": "patent US10604555B2",
  "about": "“GIP derivatives and uses thereof” (priority 2018, dated 2020)",
  "key": {"[1]": {"tested_on": "diet-induced obese (DIO) mice", "experiment": "Sub-chronic in vivo study in obese mice: food intake and body weight", "set-up": "species or system C57BL/6J mice", "settings": "for effect on body weight (in words) / effect on food intake (in words) / Cumulative food intake (kcals) Day 14: DIO mice; for effect on body weight (in words) / effect on food intake (in words): Tables 6-8, compound 47 2 nmol/kg, GIP derivatives 30 nmol/kg; for Cumulative food intake (kcals) Day 14 / Absolute BW (grams) Day 14 / Change in BW (%) Day 14: once daily s.c.; for Cumulative food intake (kcals) Day 14 / Absolute BW (grams) Day 0 / Absolute BW (grams) Day 14 / Change in BW (%) Day 14: mean ± SEM; for Absolute BW (grams) Day 0: Day 0 (before treatment)", "excerpt": "(§1) The purpose of this example is to assess the in vivo effect of the GIP derivatives of the present invention alone and in combination with a GLP-1 receptor agonist on food intake, body weight, and glucose tolerance in diet-induced obese (DIO) mice. The GLP-1 receptor agonist used for this example was a semaglutide-like molecule that has the same pharmacological properties as semaglutide, but a slightly different structure. The compound may be synthesised using methods known in the art, e.g. as described by methods of present Example 1 or as described in WO 2006/097537, example 4.\n(§2) The animals were treated once daily with the GLP-1 receptor agonist (compound no. 47) and/or a GIP derivative of the present invention exemplified by compound no.'s 5, 25 and 31, to assess weight loss, efficacy and glucose tolerance. Animals and Diet\n(§3) All animal protocols were approved by an Institutional Animal Care and Use Committee and Ethical Review Committee of Novo Nordisk. Animals were housed according to Novo Nordisk rodent housing standards, and were given ad libitum access to food and water under controlled lighting (12 h:12 h light/dark cycle; lights off 18:00-06:00), temperature (23±2° C.) and relative humidity (50±20%) conditions. DIO male C57BL/6J mice maintained on a high fat diet (45% kcal fat, RD12451, Research Diets, New Brunswick, N.J., USA) for 22 weeks were obtained from Charles River (France). Upon arrival, the mice were single-housed (one mouse per cage) and allowed to acclimate to their new environment for two weeks prior to the start of treatment.\n(§4) Prior to initiation of the study, animals were single-housed and acclimated to handling for 7 days. The DIO mice were distributed into groups (n=8/group) such that statistical variations in the mean and standard deviations of fat mass and body weight were minimized between groups. Animals were dosed once daily, subcutaneously with either vehicle or test compound.\n(§5) All compounds in the study were formulated in the following buffer: 50 mM phosphate; 70 mM sodium chloride; 0.05% polysorbate 80, pH 7.4. Dosing solutions were formulated in glass vials and stored at 2-8° C. Dosing solutions were brought to room temperature before dosing and returned to 2-8° C. after dosing.\nBody weight (BW) and food intake were measured immediately prior to dosing each day. The average starting body weight of the mice prior to start of treatment was 45.2±0.2 grams."}, "[2]": {"tested_on": "diet-induced obese (DIO) mice", "experiment": "Sub-chronic in vivo study in obese mice: IPGTT (intraperitoneal glucose tolerance test)", "set-up": "species or system C57BL/6J mice", "settings": "for effect on glucose tolerance (in words): DIO mice, Tables 6-8, compound 47 2 nmol/kg, GIP derivatives 30 nmol/kg; for iAUC, IPGTT (mM*min) Day 15: i.p. glucose 2 g/kg, 4 h fasted, baseline subtracted AUC, mean ± SEM", "excerpt": "as §1, §2, §3, §4, §5\nOn the day of the glucose tolerance test (day 15), animals were fasted for 4 h. Food was removed and animals were transferred to fresh cages. Animals had access to water but not to food. Tail blood glucose levels were measured and mice were injected (t=0) with an intra-peritoneal (i.p.) glucose load of 2 g/kg (200 mg/ml glucose solution, dose volume 10 ml/kg). Tail blood glucose levels were measured at times 0, 15, 30, 60, 90, 120 minutes following the i.p. glucose load. Stratification of the animals during the IPGTT was such that for example two mice from group 1 are dosed followed by two mice from group 2, 3, 4, before the next two mice from group 1, 2, 3 etc. were handled. This was to allow for equal distribution of “time of day” throughout all groups."}, "[3]": {"settings": "Study 1, 47 2 nmol/kg and/or 5 30 nmol/kg"}, "[4]": {"settings": "Study 2, compound no. 47 2 nmol/kg and/or compound no. 25 30 nmol/kg"}, "[5]": {"settings": "Study 2, 47 2 nmol/kg and/or 25 30 nmol/kg"}, "[6]": {"settings": "Study 3, 47 2 nmol/kg, 31 30 nmol/kg"}},
  "note": "Marks after values point to notes of the source that are not given here.",
  "data": [
    {"substance": "N^6,26-{18-[N-(17-carboxyheptadecanoyl)-D-γ-glutamyl]-10-oxo-3,6,12,15-tetraoxa-9,18-diazaoctadecanoyl}-[8-(2-amino-2-propanoic acid), 34-L-arginine]human glucagon-like peptide 1(7-37) [Compound 47]", "values": [
      {"measurement": "effect on body weight (in words)", "setting": "[1]", "result": "body weight loss"},
      {"measurement": "effect on food intake (in words)", "setting": "[1]", "result": "reduction in food intake"},
      {"measurement": "Cumulative food intake (kcals) Day 14", "setting": "[1]; Study 1, compound no. 47 2 nmol/kg and/or compound no. 5 30 nmol/kg", "result": "146.3 ± 6.8 ^b kcals"},
      {"measurement": "Absolute BW (grams) Day 0", "setting": "[1]; Study 1", "result": "44.4 ± 1.0 ^a grams"},
      {"measurement": "Absolute BW (grams) Day 14", "setting": "[1]; [3]", "result": "38.5 ± 1.2 ^bc grams"},
      {"measurement": "Change in BW (%) Day 14", "setting": "[1]; [3]", "result": "−13.2 ± 3.3 ^c %"},
      {"measurement": "Cumulative food intake (kcals) Day 14", "setting": "[1]; [4]", "result": "134.9 ± 4.3 ^b kcals"},
      {"measurement": "Absolute BW (grams) Day 0", "setting": "[1]; Study 2", "result": "40.2 ± 1.2 ^a grams"},
      {"measurement": "Absolute BW (grams) Day 14", "setting": "[1]; [5]", "result": "34.8 ± 1.2 ^b grams"},
      {"measurement": "Change in BW (%) Day 14", "setting": "[1]; [5]", "result": "−13.6 ± 0.7 ^c %"},
      {"measurement": "Cumulative food intake (kcals) Day 14", "setting": "[1]; Study 3, compound no. 47 2 nmol/kg and GIP compound no. 31 30 nmol/kg", "result": "140.2 ± 6.7 ^b kcals"},
      {"measurement": "Absolute BW (grams) Day 0", "setting": "[1]; Study 3", "result": "45.2 ± 1.4 ^a grams"},
      {"measurement": "Absolute BW (grams) Day 14", "setting": "[1]; [6]", "result": "40.0 ± 1.3 ^a grams"},
      {"measurement": "Change in BW (%) Day 14", "setting": "[1]; [6]", "result": "−11.2 ± 1.6 ^c %"},
      {"measurement": "effect on glucose tolerance (in words)", "setting": "[2]", "result": "improvement in glucose tolerance"},
      {"measurement": "iAUC, IPGTT (mM*min) Day 15", "setting": "[2]; [3]", "result": "543 ± 94 ^a mM*min"},
      {"measurement": "iAUC, IPGTT (mM*min) Day 15", "setting": "[2]; [5]", "result": "503 ± 55 ^b mM*min"},
      {"measurement": "iAUC, IPGTT (mM*min) Day 15", "setting": "[2]; [6]", "result": "1441 ± 135 ^c mM*min"}
    ]},
    {"substance": "N{1}-acetyl,N{Epsilon-24}-[(4S)-4-carboxy-4-[[(4S)-4-carboxy-4-[[(4S)-4-carboxy-4-[[4-[(19-carboxynonadecanoylamino)methyl]cyclohexanecarbonyl]amino]butanoyl]-amino]butanoyl]amino]butanoyl]-[D-Tyr1,Nle14,Arg18,Aib20,Lys24]-hGIP(1-31) [Compound 25]", "values": [
      {"measurement": "effect on body weight (in words)", "setting": "[1]", "result": "minor body weight loss"},
      {"measurement": "effect on food intake (in words)", "setting": "[1]", "result": "minor effect on food intake"},
      {"measurement": "Cumulative food intake (kcals) Day 14", "setting": "[1]; [4]", "result": "170.2 ± 7.3 ^b kcals"},
      {"measurement": "Absolute BW (grams) Day 0", "setting": "[1]; Study 2", "result": "41.1 ± 1.0 ^a grams"},
      {"measurement": "Absolute BW (grams) Day 14", "setting": "[1]; [5]", "result": "38.8 ± 1.0 ^a grams"},
      {"measurement": "Change in BW (%) Day 14", "setting": "[1]; [5]", "result": "−5.6 ± 0.8 ^b %"},
      {"measurement": "effect on glucose tolerance (in words)", "setting": "[2]", "result": "improved glucose tolerance"},
      {"measurement": "iAUC, IPGTT (mM*min) Day 15", "setting": "[2]; [5]", "result": "518 ± 36 ^b mM*min"}
    ]}
  ]
}
